Legend:
[1] = system: BALB/cJ mice; assay: Prepulse inhibition of startle; assay type: in vivo, mouse
Description: For chronic fluoxetine studies in BALB/cJ mice, 60 male BALB/cJ mice were tested in the OF for 30 min on days 19 or 20 of chronic fluoxetine treatment. Mice were then pretested and tested in the modified FST on days 21 and 22, respectively. Animals were then allowed to adapt to being singly housed, and were trained for NIH on days 25-27. Home cage and novel cage testing occurred on days 28 and 29, respectively. Mice were then assessed for PPI on days 34 or 35.
Studies of subchronic fluoxetine were conducted using separate groups of 60 male BALB/cJ mice to prevent fluoxetine treatment from exceeding one week. One group was tested in the OF after one day of subchronic fluoxetine treatment. Mice were then pretested after 6 and tested after 7 days of subchronic fluoxetine treatment in the modified FST. A second group of BALB/cJ mice began fluoxetine treatment after being singly housed. They were then tested in the NIH test after 4 (home) and 5 (novel) days of subchronic fluoxetine treatment. A third group was tested for PPI after one or two days of subchronic fluoxetine treatment.
Prepulse Inhibition: Startle experiments were performed in MED-Associates chambers. Nonrestrictive Plexiglas cylinders 5 cm in diameter rested on a Plexiglas platform with a transducer amplifier. The sound-dampening isolation chambers were ventilated, well-lit, and equipped with an acoustic stimulator. Data acquisition was performed using Med-Associates software.
Five different trial types were presented in the test session: a 40-msec broadband 120 dB burst (PULSE ALONE trial); three different PREPULSE+PULSE trials in which 20-msec long 3 dB (pp3), 6 dB (pp6), or 12 dB (pp12) stimuli above a 70 dB background preceded the 120 dB pulse by 100 msec (onset to onset), and a NO STIMULUS trial, in which only the background noise was presented. Trials were presented in a pseudo-random order. A variable interval of 10-20 seconds separated trials.
The test session consisted of 62 test trials. The session began with a 10 min acclimation period, followed by four consecutive blocks of test trials. Blocks one and four consisted of six consecutive PULSE ALONE trials, while blocks two and three contained six PULSE ALONE trials, five pp3+p120 trials, five pp6+p120 trials, five pp12+p120 trials, and four NO STIMULUS trials. Analyses were performed using average values for each trial type.
Prepulse Inhibition: PPI was calculated as the averaged startle magnitude caused by PULSE ALONE trials from blocks two and three, minus the averaged startle magnitude caused by the prepulse-pulse trials, all divided by the averaged PULSE ALONE values from blocks two and three. The resulting value was multiplied by 100 and presented as a percent PPI value. Four-factor ANOVAs with fluoxetine and RU24969 as between subjects factors and prepulse intensity and block as within subjects variables assessed percent PPI levels. Interactions were resolved using post-hoc ANOVAs with adjusted p-values, and/or Newman-Keuls post-hoc tests.

[2] = system: animals; conditions: animals without drug withdrawal or chronic stress; low dose fluoxetine; cited from earlier work

Compound	PPI ([1]; 10 mg/kg RU24969 in mice treated subchronically with fluoxetine (1-2 days))	Startle reactivity (blocks two and three) ([1]; 10 mg/kg/day RU24969, chronic fluoxetine study)	PPI ([1]; acute 10 mg/kg RU24969 i.p. in control mice (no fluoxetine), 3, 6, 12 dB prepulse intensities)	startle reactivity in the second and third blocks ([1]; subchronic fluoxetine study (1-2 days), 10 mg/kg RU24969)	intracranial self-stimulation reward thresholds [2]
COc1ccc2[nH]cc(C3=CCNCC3)c2c1 [RU24969, 5-methoxy-3(1,2,3,6)tetrahydropyridin-4-yl-1H-indole]	disrupted PPI at each prepulse intensity	increased overall	disrupted PPI in control mice	no effects	–
CNCCCN1c2ccccc2CCc2ccccc21 [desmethylimipramine]	–	–	–	–	no effect
